From the supplement of paper PMC10627819

Columns and labels:
Assay in all cases: fitness (endpoint OD595 vs no drug) (fraction); higher = more growth
S. pneumoniae D39V = test system: S. pneumoniae D39V
In short: (§1)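 With the first reading as background, OD595 was measured every 30 min for 14 h in 384-well plates kept at 37 °C and inoculated at OD595 0.01. TSB, LB Lennox or CY was the medium. Fitness is the optical density at the transition into stationary phase divided by the robust mean of no-drug control wells, with a cap of 1.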

B. subtilis 168 = test system: B. subtilis 168
In short: as §1

S. aureus DSM 20231 = test system: S. aureus DSM 20231
In short: as §1
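Note: OD595 on entry to stationary phase over no-drug wells; at most 1.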

CN(C)[C@@H]1C(O)=C(C(N)=O)C(=O)[C@@]2(O)C(O)=C3C(=O)c4c(O)ccc(Cl)c4[C@@](C)(O)[C@H]3C[C@@H]12 [Chlortetracycline] + Cc1cc(NS(=O)(=O)c2ccc(N)cc2)no1 [Sulfamethoxazol]
fitness, one replicate
Conditions | partner 0.5 µg/mL | partner 1 µg/mL | partner 2 µg/mL | partner 4 µg/mL
B. subtilis 168, first compound 0.0475 µg/mL | 0.905 | – | – | –
B. subtilis 168, first compound 0.095 µg/mL | 0.837 | – | – | –
B. subtilis 168, first compound 0.19 µg/mL | 0.449 | – | – | –
S. aureus DSM 20231, first compound 0.006 µg/mL | – | 0.724 | 0.733 | 0.761
S. pneumoniae D39V, first compound 0.012 µg/mL | – | 0.929 | 0.951 | 0.865
S. pneumoniae D39V, first compound 0.024 µg/mL | – | 0.851 | 0.88 | 0.806
S. pneumoniae D39V, first compound 0.048 µg/mL | – | 0.793 | 0.797 | 0.743

fitness
Conditions | partner 1 µg/mL | partner 2 µg/mL | partner 4 µg/mL
B. subtilis 168, first compound 0.0475 µg/mL | 0.9 | 0.852 | 0.907
B. subtilis 168, first compound 0.095 µg/mL | 0.78 | 0.725 | 0.779
B. subtilis 168, first compound 0.19 µg/mL | 0.548 | 0.527 | 0.5
S. aureus DSM 20231, first compound 0.012 µg/mL | 0.509 | 0.533 | 0.573
S. aureus DSM 20231, first compound 0.024 µg/mL | 0.256 | 0.234 | 0.264
S. aureus DSM 20231, first compound 0.048 µg/mL | 0.0878 | 0.0579 | 0.059
S. pneumoniae D39V, first compound 0.375 µg/mL | 0.0312 | 0.0347 | 0.0394
S. pneumoniae D39V, first compound 0.75 µg/mL | 0.0329 | 0.0284 | 0.0259
S. pneumoniae D39V, first compound 1.5 µg/mL | 0.0307 | 0.0374 | 0.0403

CN(C)[C@@H]1C(O)=C(C(N)=O)C(=O)[C@@]2(O)C(O)=C3C(=O)c4c(O)ccc(Cl)c4[C@@](C)(O)[C@H]3C[C@@H]12 [Chlortetracycline] + COc1ccc(C[C@H](N)C(=O)N[C@H]2[C@@H](O)[C@H](n3cnc4c(N(C)C)ncnc43)O[C@@H]2CO)cc1 [Puromycin]
fitness, one replicate
Conditions | first compound 0.006 µg/mL | first compound 0.012 µg/mL | first compound 0.024 µg/mL | first compound 0.048 µg/mL
S. aureus DSM 20231, partner 0.39 µg/mL | 0.853 | – | – | –
S. aureus DSM 20231, partner 0.78 µg/mL | 0.847 | – | – | –
S. aureus DSM 20231, partner 1.56 µg/mL | 0.731 | – | – | –
S. aureus DSM 20231, partner 3.12 µg/mL | – | 0.325 | 0.0559 | 0.0249
S. aureus DSM 20231, partner 6.24 µg/mL | – | 0.0809 | 0.0524 | 0.0264
S. pneumoniae D39V, partner 1 µg/mL | – | 0.822 | 0.875 | 0.647
S. pneumoniae D39V, partner 2 µg/mL | – | 0.793 | 0.773 | 0.453
S. pneumoniae D39V, partner 4 µg/mL | – | 0.619 | 0.606 | 0.171

fitness
Conditions | partner 0.39 µg/mL | partner 0.78 µg/mL | partner 1 µg/mL | partner 1.56 µg/mL | partner 2 µg/mL | partner 4 µg/mL
B. subtilis 168, first compound 0.0475 µg/mL | 0.858 | 0.901 | – | 0.904 | – | –
B. subtilis 168, first compound 0.095 µg/mL | 0.741 | 0.728 | – | 0.671 | – | –
B. subtilis 168, first compound 0.19 µg/mL | 0.512 | 0.459 | – | 0.351 | – | –
S. aureus DSM 20231, first compound 0.012 µg/mL | 0.567 | 0.589 | – | 0.497 | – | –
S. aureus DSM 20231, first compound 0.024 µg/mL | 0.2 | 0.217 | – | 0.137 | – | –
S. aureus DSM 20231, first compound 0.048 µg/mL | 0.053 | 0.171 | – | 0.0612 | – | –
S. pneumoniae D39V, first compound 0.375 µg/mL | – | – | 0.0657 | – | 0.0757 | 0.0703
S. pneumoniae D39V, first compound 0.75 µg/mL | – | – | 0.0562 | – | 0.0783 | 0.0776
S. pneumoniae D39V, first compound 1.5 µg/mL | – | – | 0.0348 | – | 0.0557 | 0.0492
